Reference: patent US10556005B2 (priority 2011, dated 2020)

What was measured:
[1] = Observation of administered mice for abnormality / induration at topical area; assay type: in vivo; settings: mice administered with citrulline; compared with induration seen where Alum is administered
[2] = test system: HA antigen of influenza virus (strain: A/Solomon); design: species or system BALB/c mice; settings: mouse, in vivo, sc

With `NC(=O)NCCCC(N)C(=O)O` (centres unmarked) [citrulline, 2-amino-5-(carbamoylamino)-pentanoic acid] the “abnormality / induration in mice administered” value [1] was “neither abnormality nor induration” and the “adjuvant effect compared with Alum adjuvant (in words)” value [2] was “same extent as that of Alum adjuvant”.
